From the supplement of paper PMC4858399
Where a name gives a salt, the structure may show the parent alone.

How the values were obtained:
Conditions in all cases: exposure time 48 h
[1] = tested on: Caenorhabditis elegans N2; test: AC50 for larval growth inhibition (Hill fit); higher = less potent
How it was run: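 C. elegans N2 L1 larvae, synchronised and plated at 50 per well in 96-well plates, were exposed for 48 h at 20°C to 0.5–200 µM chemical in K-medium with killed OP50 and 1% DMSO. Log-transformed extinction from a COPAS Biosort served as worm size, averaged per well. Wells containing at least 10 worms entered the fit. A constrained Hill fit by weighted genetic-algorithm regression yielded the AC50, censored when out of range.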

[2] = tested on: Caenorhabditis elegans N2; test: mean nematode size ln(EXT) after 48 h, plate-adjusted (DMSO control set to 6) (ln(EXT), control-adjusted); higher = larger nematodes / less growth inhibition
How it was run: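 Chemical at 0.5–200 µM was tested on synchronised C. elegans N2 L1 larvae grown for 48 h at 20°C in K-medium with killed OP50 and 1% DMSO. Per-worm Biosort extinction, cleared of debris by a growth model, was natural-logged and averaged per well to give mean size. Plates were normalised by subtracting the vehicle control mean and adding 6.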

[3] = tested on: Caenorhabditis elegans N2; test: lowest effective concentration for larval growth inhibition (size below effect threshold); higher = less potent
How it was run: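 Worm size was taken as per-worm extinction on the Biosort, log-transformed and turned into well means. The larvae (C. elegans N2, L1 stage, 50 per 96-well) had spent 48 h at 20°C in K-medium with killed bacteria, 1% DMSO and 0.5, 1, 5, 10, 50, 100 or 200 µM chemical. The lowest effective concentration marks the first dose where the plate-adjusted mean size drops under a cutoff and remains under it at every higher dose; the cutoff is 5.665.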

Row | SMILES | AC50 for larval growth inhibition [1] [µM] | mean nematode size ln(EXT) (ln) ([2]; 0.5 µM) | mean nematode size ln(EXT) (ln) ([2]; 1 µM) | mean nematode size ln(EXT) (ln) ([2]; 5 µM) | mean nematode size ln(EXT) (ln) ([2]; 10 µM) | mean nematode size ln(EXT) (ln) ([2]; 50 µM) | mean nematode size ln(EXT) (ln) ([2]; 100 µM) | mean nematode size ln(EXT) (ln) ([2]; 200 µM) | lowest effective concentration [3] [µM]
1 | CCC(C)(C)C(=O)O[C@H]1C[C@@H](C)C=C2C=C[C@H](C)[C@H](CC[C@@H]3C[C@@H](O)CC(=O)O3)[C@H]21 [Simvastatin] | > 200 | 5.79 | 5.93 | 6 | 5.84 | 5.7 | 5.39 | 4.67 | 100
2 | Oc1ccc2c(c1)OC[C@@H](N1CCC(O)(c3ccc(F)cc3)CC1)[C@H]2O | 51.4 | 5.9 | 6.11 | 6.21 | 6.18 | 5.48 | 4.39 | 4.5 | 50
3 | CN(C)[C@@H]1C(=O)C(C(N)=O)=C(O)[C@@]2(O)C(=O)C3=C(O)c4c(O)cccc4[C@@](C)(O)[C@H]3[C@H](O)[C@@H]12 [Oxytetracycline hydrochloride] | 81.4 | 5.99 | 5.96 | 5.95 | 6.01 | 5.9 | 5.64 | 5.48 | 100
4 | CC(=O)NC1(c2cccc(F)c2)CCN(CC[C@@]2(c3ccc(Cl)c(Cl)c3)CN(c3ccccc3)C(=O)CO2)CC1 | > 200 | 5.89 | 5.91 | 5.85 | 5.88 | 5.82 | 5.52 | 5.02 | 100
5 | CCCCCCc1ccc(O)cc1O [4-Hexylresorcinol] | 181 | 6 | 5.89 | 5.83 | 5.84 | 5.6 | 5.03 | 4.47 | 50
6 | CCOC(=O)COc1cc(-n2ncc(C(F)(F)F)c(C)c2=O)c(F)cc1Cl [Flufenpyr-ethyl] | > 200 | 5.85 | 5.76 | 5.8 | 5.87 | 5.88 | 5.91 | 5.57 | 200
7 | CCCCCCC(CCCCCCCCCCC(=O)OCC(COC(C)=O)OC(C)=O)OC(C)=O (configuration not stated) | > 200 | 5.48 | 5.6 | 5.59 | 5.69 | 5.64 | 5.58 | 5.53 | 50
8 | CCN1CCC2(CC1)COc1cc3c(cc12)N(C(=O)c1ccc(-c2ccc(-c4nnc(C)o4)cc2C)cc1)CC3 | 52.6 | 5.74 | 5.82 | 5.74 | 5.84 | 5.56 | 4.06 | 4.5 | 50
9 | COc1ccc2cc(S(=O)(=O)N[C@H](CC(=O)N[C@H](Cc3ccc(CN4[C@H](C)CCC[C@@H]4C)cc3)C(=O)N(C)C(C)C)c3ccc4c(c3)OCO4)ccc2c1 | > 200 | 5.87 | 5.8 | 5.85 | 5.73 | 5.76 | 5.43 | 4.99 | 100
10 | COP(=S)(OC)Oc1nc(Cl)c(Cl)cc1Cl [Chlorpyrifos-methyl] | 96.8 | 6.24 | 6.29 | 6.3 | 6.17 | 5.93 | 4.68 | 3.59 | 100
11 | CCCN(CC)CC1COC2(CCC(C(C)(C)C)CC2)O1 (configuration not stated) [Spiroxamine] | 184 | 5.61 | 5.84 | 5.9 | 6.1 | 5.84 | 6.17 | 3.97 | 200
12 | CN(C)CCCN1c2ccccc2Sc2ccc(Cl)cc21 [Chlorpromazine hydrochloride] | 46.3 | 5.89 | 5.87 | 5.82 | 5.71 | 4.47 | 3.85 | 3.07 | 50
13 | O=C(O)Cn1c(=O)n(Cc2ccc(Br)cc2F)c(=O)c2ccc(Cl)cc21 [Zenarestat] | > 200 | 5.91 | 5.87 | 5.84 | 6.11 | 5.77 | 5.77 | 5.4 | 200
14 | CCN(CC)c1ccccc1 [N,N-Diethyl aniline] | 186 | 6.08 | 6.09 | 5.9 | 6 | 5.98 | 6.05 | 4.83 | 200
15 | Clc1ccc(Cl)cc1 [1,4-Dichlorobenzene] | > 200 | 5.89 | 5.93 | 5.94 | 5.84 | 5.84 | 5.73 | 5.58 | 200
16 | CC(C)N1C(=O)c2ccccc2NS1(=O)=O [Bentazone] | > 200 | 6.05 | 5.93 | 5.96 | 6 | 6.01 | 6.05 | 5.55 | 200
17 | CC(C)(C)c1ccc(CSc2cnn(C(C)(C)C)c(=O)c2Cl)cc1 [Pyridaben] | < 0.5 | 4.73 | 4.44 | 4.31 | 4.22 | 4.14 | 3.92 | 3.87 | ≤ 0.5

Row | SMILES | AC50 for larval growth inhibition [1] [µM] | mean nematode size ln(EXT) (ln) ([2]; 0.5 µM) | mean nematode size ln(EXT) (ln) ([2]; 1 µM) | mean nematode size ln(EXT) (ln) ([2]; 5 µM) | mean nematode size ln(EXT) (ln) ([2]; 10 µM) | mean nematode size ln(EXT) (ln) ([2]; 50 µM) | mean nematode size ln(EXT) (ln) ([2]; 100 µM) | mean nematode size ln(EXT) (ln) ([2]; 200 µM) | lowest effective concentration [3] [µM]
18 | [Cl][Hg][Cl] [Mercuric chloride] | 7.77 | 5.91 | 5.84 | 5.47 | 4.41 | 3.59 | 3.72 | 3.64 | 5
19 | OCC(O)CO [Glycerol] | > 200 | 5.83 | 5.87 | 5.84 | 5.75 | 5.87 | 5.87 | 5.66 | 200
20 | c1ccc2c(c1)Cc1ccccc1-2 [Diphenylenemethane] | 39.2 | 6.07 | 6.06 | 6.03 | 5.92 | 4.4 | 4.02 | 3.5 | 50
21 | CCCCCCCCCCCO [1-Undecanol] | 18.4 | 5.77 | 6.01 | 5.84 | 5.7 | 3.79 | 3.74 | 4.93 | 50
22 | CCC(CC)Nc1c([N+](=O)[O-])cc(C)c(C)c1[N+](=O)[O-] [Pendimethalin] | > 200 | 5.89 | 5.93 | 5.86 | 5.77 | 5.86 | 6.13 | 5.44 | 200
23 | CCOP(=S)(OCC)Oc1nc(Cl)n(C(C)C)n1 [Isazofos] | 3.38 | 4.88 | 5.05 | 4.5 | 4.43 | 3.8 | 3.59 | 3.78 | ≤ 0.5
24 | O=C(Nc1ccccc1)Nc1cnns1 [Thidiazuron] | > 200 | 6.05 | 6.18 | 6.1 | 5.93 | 6.01 | 5.89 | 4.8 | 200
25 | CCc1nc(N)nc(N)c1-c1ccc(Cl)cc1 [Pyrimethamine] | > 200 | 5.86 | 5.91 | 6.02 | 5.67 | 5.66 | 5.43 | 4.91 | 50
26 | COP(=S)(OC)Oc1ccc([N+](=O)[O-])c(C)c1 [Fenitrothion] | 37 | 5.97 | 5.72 | 5.6 | 5.46 | 4.49 | 3.96 | 4.09 | 5
27 | CCN(CC)C(=O)SCc1ccc(Cl)cc1 [Thiobencarb] | 51.1 | 5.97 | 5.98 | 5.97 | 5.95 | 5.44 | 4.48 | 4.48 | 50
28 | CC[C@H](C)[C@H]1O[C@]2(C=C[C@@H]1C)C[C@@H]1C[C@@H](C/C=C(\C)[C@@H](O[C@H]3C[C@H](OC)[C@@H](O[C@H]4C[C@H](OC)[C@@H](O)[C@H](C)O4)[C@H](C)O3)[C@@H](C)/C=C/C=C3\CO[C@@H]4[C@H](O)C(C)=C[C@@H](C(=O)O1)[C@]34O)O2.CO[C@H]1C[C@H](O[C@H]2[C@H](C)O[C@@H](O[C@@H]3/C(C)=C/C[C@@H]4C[C@@H](C[C@]5(C=C[C@H](C)[C@@H](C(C)C)O5)O4)OC(=O)[C@@H]4C=C(C)[C@@H](O)[C@H]5OC/C(=C\C=C\[C@@H]3C)[C@]54O)C[C@@H]2OC)O[C@@H](C)[C@@H]1O [Abamectin] | < 0.5 | 3.68 | 3.31 | 3.37 | 3.26 | 3.38 | 3.35 | 3.24 | ≤ 0.5
29 | CCOc1ccc(C(C)(C)COCc2cccc(Oc3ccccc3)c2)cc1 [Etofenprox] | 52.2 | 5.87 | 5.88 | 5.91 | 5.71 | 5.81 | 5.39 | 5.47 | 100
30 | Nc1ccc(S(=O)(=O)c2ccc(N)cc2)cc1 [4-Aminophenyl sulfone] | > 200 | 5.93 | 5.92 | 5.94 | 5.86 | 5.83 | 5.8 | 5.56 | 200
31 | CCCCCCCCCCCCCO [1-Tridecanol] | 15.4 | 5.9 | 5.76 | 5.58 | 5.34 | 3.57 | 3.5 | 3.54 | 5
32 | CO/N=C(/C1=NOCCO1)c1ccccc1Oc1ncnc(Oc2ccccc2Cl)c1F [Fluoxastrobin] | > 200 | 5.86 | 5.94 | 6.05 | 6.07 | 5.65 | 5.6 | 5.12 | 50
33 | CCCCCCCCOc1ccc(C(=O)c2ccccc2)c(O)c1 [2-Hydroxy-4-(octyloxy)benzophenone] | 19.2 | 5.91 | 5.98 | 5.92 | 5.95 | 5.61 | 5.56 | 5.64 | 50
